Measurements reported in US20040198754A1, “Composition and method for appetite and craving suppression and mood enhancement” (Pro-Health, Inc., priority 2003, published 2004).

Test: Individual human case reports of oral theobromine tablets (appetite, cravings, mood, energy, weight, side effects), with earlier use of commercial diet products
Format: in vivo
Description: They lost 18 lbs., and did report having a headache. No other side effects were reported.
No other side effects were reported.
They lost 9 lbs. in 21 days.
They also took Metabolife 356® made by Metabolife International Inc. which contains a caffeine-ephedrine combination.
A person had been taking Xenadrine EFX (ephedrine free, contains synephrine) to try to stop smoking while losing weight, but with little effect on their appetite and nicotine craving. […] They discontinued use of theobromine over a weekend, and noted that the urge to smoke again became strong. […] They were also exercising, and despite quitting smoking at the same time, lost 4.5 pounds, and reported fitting into clothes that they hadn't been able to wear for several years.

[1] = person, 500 mg. theobromine 4 times per day for 21 days
[2] = person, 2 grams per day for 12 days
[3] = person, 3,250 mg. tablets per day for 10 days
[4] = person, 4, 250 mg. tablets four times per day for 21 days
[5] = person, up to 2 grams daily for 28 days
[6] = smoker, 750 mg. theobromine per day for three weeks

Which results are given for Cn1cnc2c1c(=O)[nH]c(=O)n2C [theobromine, 3,7-dimethylxanthine]?
craving for sweets (self-reported) (person with lifelong cravings for sweets, one 250 mg. tablet per day): no craving for such sweets; appetite (self-reported) (person, 500 mg. of Theobromine): appetite suppression; energy (self-reported) (person, 500 mg. of Theobromine): good energy; mood (self-reported) (person, 500 mg. of Theobromine): sense of well being; appetite and food cravings (self-reported) [1]: reduced appetite and food cravings; energy (self-reported) [1]: increased energy without a stimulant high; weight lost [1]: 8 lbs.; weight lost (person, 750 mg. theobromine per day for three weeks, also exercising and quitting smoking): 4.5 pounds; appetite (self-reported) [2]: less appetite; energy, mood and thinking (self-reported) [2]: more energy, improved mood and clearer thinking; weight loss [2]: 5 pound; appetite (self-reported) [3]: reduced appetite; energy (self-reported) [3]: excellent energy; mood (self-reported) [3]: euphoric calmness to their mood; weight lost [3]: 8 lbs.; appetite (self-reported) [4]: reduced appetite; mood and energy (self-reported) [4]: elevated mood, more energy; weight lost [4]: 18 lbs.; appetite (self-reported) [5]: lowered appetite; energy or mood (self-reported) [5]: no energy or mood difference; weight lost (person, up to 2 grams daily, in 21 days): 9 lbs.; appetite (self-reported) [6]: reduced appetite; cravings for chocolate prior to menses (self-reported) [6]: reduction in cravings for chocolate; mood (self-reported) [6]: much calmer and less angry; urge to smoke (self-reported) [6]: loss of the urge to smoke
